Legend:
[1] = test system: T. congolense; test: Microcalorimetry of parasite growth; type: cell-based, Trypanosoma congolense
Protocol: These observations offer confidence that rats can be used as a model animal in the drug development path going forward prior to studies in cattle. Exposure following IM injection in rats was sufficient to warrant progression to cattle efficacy studies, although the short half-life raised concerns that the required time above the EC99 blood concentration may not be sufficient for cure following a single IM dose at 10 mg/kg.

[2] = in vivo; conditions: NMRI, mouse
Protocol: (§1) 2.4 Protein plasma binding
(§2) This was determined as previously described.6
(§3) 2.5 PK and maximum tolerated dose - mouse
PK studies in female NMRI mice (Figure S1): Test compounds 1, 2 and 10 were dosed SC at 10 mg free base/kg (dose volume 10 mL/kg; dose vehicle: 5% (v/v) DMSO, 40% polyethylene glycol 400 (PEG400) and 55% deionized water) to female NMRI mice (n = 3). Blood samples (10 μL) were taken from each mouse at 0.08, 0.25, 0.5, 1, 2, 4, 6, 8 h post dose (24 h post dose for compounds 2 and 10 only) and mixed with two volumes of deionized water (20 μL). Alternatively, compound 2 was delivered for 48 h via SC implanted ALZET osmotic pumps (10, 25 and 50 mg free base/mL, vehicle: 50% DMSO and 50% deionized water) to the female NMRI mouse (n = 3). Blood samples (10 μL) from each mouse were taken at 1, 3, 6, 24, 30 and 48 h post-dose and mixed with two volumes of deionized water (20 μL). […]
Response to treatment was determined by monitoring parasitaemia twice a week until day 21. […]
In each of the cattle efficacy studies (3.3, 3.4 and 3.5), efficacy was assessed primarily on absence of recrudescence of parasitaemia for 100 days after treatment administration together with improvements in Packed Cell Volume, body weight and clinical signs of infected compared with uninfected animals. […]

[3] = Protein plasma binding; type: in vitro ADME; conditions: mouse
Protocol: as §1, §2, §3
PK studies in female NMRI mice (Figure S1): Test compounds 1, 2 and 10 were dosed SC at 10 mg free base/kg (dose volume 10 mL/kg; dose vehicle: 5% (v/v) DMSO, 40% polyethylene glycol 400 (PEG400) and 55% deionized water) to female NMRI mice (n = 3). Blood samples (10 μL) were taken from each mouse at 0.08, 0.25, 0.5, 1, 2, 4, 6, 8 h post dose (24 h post dose for compounds 2 and 10 only) and mixed with two volumes of deionized water (20 μL). Alternatively, compound 2 was delivered for 48 h via SC implanted ALZET osmotic pumps (10, 25 and 50 mg free base/mL, vehicle: 50% DMSO and 50% deionized water) to the female NMRI mouse (n = 3). Blood samples (10 μL) from each mouse were taken at 1, 3, 6, 24, 30 and 48 h post-dose and mixed with two volumes of deionized water (20 μL).
Compound 1 as free base in 5% DMSO; 40% PEG400; 55% MilliQ water was dosed daily subcutaneously with doses of 50 mg/kg, 100 mg/kg and 300 mg/kg for 3 days.
2.6 PK and formulation studies - male Sprague rats […]

[4] = Ames test for potential genotoxicity
[5] = Mouse hepatocyte stability; type: in vitro ADME; conditions: intrinsic clearance

| SMILES | Effect on parasites, microcalorimetry ([1]; 10 ng/mL) | Effect on parasites, microcalorimetry ([1]; 30 ng/mL) | Effect on parasites, microcalorimetry ([1]; 100 ng/mL) | Cmax [2] [ng/mL] | fraction unbound [3] | Ames [4] | Mouse Hepatocyte Cli [5] [mL/min/g] |
| --- | --- | --- | --- | --- | --- | --- | --- |
| CC(C)CS(=O)(=O)N[C@H]1CC[C@H](Nc2nc(N)c(C(=O)c3c(F)cc(CN(C)C)cc3F)s2)CC1 [Compound 2, N-(trans)-[4-[[4-Amino-5-[4-(dimethylaminomethyl)-2,6-difluoro-benzoyl]thiazol-2-yl]amino]cyclohexyl]-2-methyl-propane-1-sulfonamide] | slowed parasite growth | rapid kill | rapid kill | 34 to 65 | – | – | – |
| CC(C)CS(=O)(=O)N[C@H]1CC[C@H](Nc2nc(N)c(C(=O)c3c(F)cccc3F)s2)CC1 [Compound 1, N-((trans)-4-((4-Amino-5-(2,6-difluorobenzoyl)thiazol-2-yl)amino)cyclohexyl)-2-methylpropane-1-sulfonamide] | – | – | – | – | 0.16 | negative | 5.9 |

Source: PMC9014415, “Repositioning of a Diaminothiazole Series Confirmed to Target the Cyclin-Dependent Kinase CRK12 for Use in the Treatment of African Animal Trypanosomiasis” (Journal of Medicinal Chemistry, 2022)
